Results reported in ChEMBL document CHEMBL5465560, “Selectivity Literature for EUbOPEN Chemogenomic Library” (2024).

Legend:
[1] = target: Protein kinase C delta type (Homo sapiens) (UniProt Q05655); conditions: at 10 µM
[2] = target: Ribosomal protein S6 kinase alpha-3 (Homo sapiens, UniProt P51812); test: Selectivity interaction (Ambit KINOMEscan and KiNATiv profiling in Jurkat cells) EUB0000090b RPS6KA3; type: cell-based; conditions: at 1 µM
[3] = target: T1, Mitogen-activated protein kinase kinase kinase 3 (Homo sapiens) (UniProt Q99759); test: Selectivity interaction (KinomeScan (DiscoverX)) EUB0001079a MAP3K3; conditions: at 1 µM
T1 sequence (whole entry): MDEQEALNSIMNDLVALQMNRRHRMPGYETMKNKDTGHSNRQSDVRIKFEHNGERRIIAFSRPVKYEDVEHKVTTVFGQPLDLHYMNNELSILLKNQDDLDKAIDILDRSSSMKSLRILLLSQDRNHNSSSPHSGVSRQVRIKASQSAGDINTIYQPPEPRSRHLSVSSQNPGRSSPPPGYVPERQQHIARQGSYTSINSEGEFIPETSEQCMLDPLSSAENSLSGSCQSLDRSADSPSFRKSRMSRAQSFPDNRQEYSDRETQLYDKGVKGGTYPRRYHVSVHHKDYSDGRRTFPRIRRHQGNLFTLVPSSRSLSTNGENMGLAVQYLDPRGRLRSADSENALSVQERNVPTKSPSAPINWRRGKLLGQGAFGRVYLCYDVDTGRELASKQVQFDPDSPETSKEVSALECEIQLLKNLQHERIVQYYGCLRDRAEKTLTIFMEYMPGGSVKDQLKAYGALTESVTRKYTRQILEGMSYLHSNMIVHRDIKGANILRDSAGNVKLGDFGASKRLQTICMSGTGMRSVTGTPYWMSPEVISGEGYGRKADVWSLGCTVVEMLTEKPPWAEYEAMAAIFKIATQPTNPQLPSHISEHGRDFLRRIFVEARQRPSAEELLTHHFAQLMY

[4] = target: T2, Serine/threonine-protein kinase Nek1 (Homo sapiens) (UniProt Q96PY6); test: Selectivity interaction (KinomeScan (DiscoverX)) EUB0000045b NEK1
T2 sequence (whole entry): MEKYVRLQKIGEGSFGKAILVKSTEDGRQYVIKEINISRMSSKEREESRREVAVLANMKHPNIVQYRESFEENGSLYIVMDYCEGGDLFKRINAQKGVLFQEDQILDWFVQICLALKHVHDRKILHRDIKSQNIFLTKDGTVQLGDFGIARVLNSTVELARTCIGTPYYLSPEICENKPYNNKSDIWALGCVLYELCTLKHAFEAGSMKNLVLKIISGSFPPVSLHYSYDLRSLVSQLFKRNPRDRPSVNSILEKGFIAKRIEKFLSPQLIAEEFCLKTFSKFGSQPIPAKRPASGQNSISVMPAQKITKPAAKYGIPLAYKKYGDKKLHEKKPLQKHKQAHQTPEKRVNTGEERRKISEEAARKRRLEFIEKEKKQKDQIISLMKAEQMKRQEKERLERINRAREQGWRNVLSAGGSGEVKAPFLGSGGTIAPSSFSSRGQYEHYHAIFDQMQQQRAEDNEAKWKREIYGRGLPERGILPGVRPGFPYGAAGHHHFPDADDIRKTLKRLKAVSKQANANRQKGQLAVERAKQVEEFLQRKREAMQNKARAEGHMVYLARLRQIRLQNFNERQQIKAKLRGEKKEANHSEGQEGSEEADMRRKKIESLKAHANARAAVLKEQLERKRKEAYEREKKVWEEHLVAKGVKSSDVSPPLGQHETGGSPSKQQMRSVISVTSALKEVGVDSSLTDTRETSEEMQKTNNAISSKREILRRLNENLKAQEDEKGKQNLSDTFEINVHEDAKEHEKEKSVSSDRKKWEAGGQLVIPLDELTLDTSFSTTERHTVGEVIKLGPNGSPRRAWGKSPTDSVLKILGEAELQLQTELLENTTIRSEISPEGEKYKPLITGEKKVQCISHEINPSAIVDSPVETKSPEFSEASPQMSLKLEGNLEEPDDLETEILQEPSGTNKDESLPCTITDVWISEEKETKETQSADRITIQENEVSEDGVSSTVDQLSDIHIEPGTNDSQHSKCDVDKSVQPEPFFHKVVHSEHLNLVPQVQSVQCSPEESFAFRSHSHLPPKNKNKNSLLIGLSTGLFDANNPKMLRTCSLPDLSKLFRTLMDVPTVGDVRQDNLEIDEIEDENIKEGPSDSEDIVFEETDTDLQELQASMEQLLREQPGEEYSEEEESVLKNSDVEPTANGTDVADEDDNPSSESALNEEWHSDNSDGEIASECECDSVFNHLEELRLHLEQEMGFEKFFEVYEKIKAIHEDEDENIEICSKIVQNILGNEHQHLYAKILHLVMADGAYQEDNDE

[5] = target: Protein kinase C eta type (Homo sapiens) (UniProt P24723); test: Selectivity interaction (KinomeScan (DiscoverX)) EUB0000229b PRKCH; conditions: at 10 µM
[6] = target: T3, Dual specificity mitogen-activated protein kinase kinase 4 (Homo sapiens) (UniProt P45985); test: Selectivity interaction (KinomeScan (DiscoverX)) EUB0000695a MAP2K4; conditions: at 100 nM
T3 sequence (whole entry): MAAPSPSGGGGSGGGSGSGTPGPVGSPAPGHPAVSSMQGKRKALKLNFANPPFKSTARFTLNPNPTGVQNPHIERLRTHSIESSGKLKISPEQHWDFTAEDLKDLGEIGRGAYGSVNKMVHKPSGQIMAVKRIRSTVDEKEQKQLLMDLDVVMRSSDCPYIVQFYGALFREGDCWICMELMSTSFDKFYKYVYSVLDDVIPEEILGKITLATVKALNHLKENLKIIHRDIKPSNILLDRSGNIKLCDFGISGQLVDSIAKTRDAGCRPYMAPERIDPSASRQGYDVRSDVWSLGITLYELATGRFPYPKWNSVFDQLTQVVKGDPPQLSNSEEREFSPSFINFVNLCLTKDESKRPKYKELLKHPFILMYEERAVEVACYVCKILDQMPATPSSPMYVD

Sequence of Protein kinase C delta type (Homo sapiens) (Q05655 whole entry, looked up): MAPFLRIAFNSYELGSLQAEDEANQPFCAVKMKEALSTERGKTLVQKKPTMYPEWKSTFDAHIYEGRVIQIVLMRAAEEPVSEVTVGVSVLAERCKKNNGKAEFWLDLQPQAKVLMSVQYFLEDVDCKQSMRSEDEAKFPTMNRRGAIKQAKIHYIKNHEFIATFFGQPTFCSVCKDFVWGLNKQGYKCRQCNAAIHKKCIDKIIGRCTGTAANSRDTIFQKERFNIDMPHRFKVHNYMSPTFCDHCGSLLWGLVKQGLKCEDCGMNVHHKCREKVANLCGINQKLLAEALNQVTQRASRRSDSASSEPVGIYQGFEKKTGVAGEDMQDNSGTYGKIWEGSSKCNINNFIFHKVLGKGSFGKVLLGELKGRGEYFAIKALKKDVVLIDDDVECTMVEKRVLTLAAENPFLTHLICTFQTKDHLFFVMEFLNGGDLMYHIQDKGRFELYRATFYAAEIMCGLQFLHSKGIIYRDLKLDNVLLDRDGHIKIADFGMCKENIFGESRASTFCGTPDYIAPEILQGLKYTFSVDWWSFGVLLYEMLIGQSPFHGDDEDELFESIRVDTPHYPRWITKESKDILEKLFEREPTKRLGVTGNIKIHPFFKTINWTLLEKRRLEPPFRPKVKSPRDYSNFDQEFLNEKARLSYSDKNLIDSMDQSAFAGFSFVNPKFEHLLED
Sequence of Ribosomal protein S6 kinase alpha-3 (P51812 whole entry): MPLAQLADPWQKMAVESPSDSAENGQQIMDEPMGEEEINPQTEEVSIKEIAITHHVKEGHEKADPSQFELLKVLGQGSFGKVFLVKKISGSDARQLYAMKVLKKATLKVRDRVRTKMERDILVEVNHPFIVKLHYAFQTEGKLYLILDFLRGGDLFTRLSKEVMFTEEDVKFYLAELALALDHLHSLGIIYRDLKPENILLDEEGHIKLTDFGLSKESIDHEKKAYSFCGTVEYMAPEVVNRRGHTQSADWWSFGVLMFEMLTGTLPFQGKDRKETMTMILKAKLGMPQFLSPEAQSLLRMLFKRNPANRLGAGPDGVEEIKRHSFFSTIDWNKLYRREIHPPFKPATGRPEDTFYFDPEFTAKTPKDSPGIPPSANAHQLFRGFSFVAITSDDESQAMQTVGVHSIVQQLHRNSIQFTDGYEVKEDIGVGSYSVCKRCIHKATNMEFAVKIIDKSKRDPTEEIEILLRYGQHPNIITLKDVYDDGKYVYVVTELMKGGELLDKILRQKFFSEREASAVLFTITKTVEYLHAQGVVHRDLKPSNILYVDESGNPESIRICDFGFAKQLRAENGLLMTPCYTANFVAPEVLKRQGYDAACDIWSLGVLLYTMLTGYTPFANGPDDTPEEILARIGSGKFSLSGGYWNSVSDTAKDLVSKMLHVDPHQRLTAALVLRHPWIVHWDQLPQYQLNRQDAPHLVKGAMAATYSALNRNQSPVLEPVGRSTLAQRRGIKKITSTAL
Sequence of Protein kinase C eta type (Homo sapiens) (P24723 whole entry): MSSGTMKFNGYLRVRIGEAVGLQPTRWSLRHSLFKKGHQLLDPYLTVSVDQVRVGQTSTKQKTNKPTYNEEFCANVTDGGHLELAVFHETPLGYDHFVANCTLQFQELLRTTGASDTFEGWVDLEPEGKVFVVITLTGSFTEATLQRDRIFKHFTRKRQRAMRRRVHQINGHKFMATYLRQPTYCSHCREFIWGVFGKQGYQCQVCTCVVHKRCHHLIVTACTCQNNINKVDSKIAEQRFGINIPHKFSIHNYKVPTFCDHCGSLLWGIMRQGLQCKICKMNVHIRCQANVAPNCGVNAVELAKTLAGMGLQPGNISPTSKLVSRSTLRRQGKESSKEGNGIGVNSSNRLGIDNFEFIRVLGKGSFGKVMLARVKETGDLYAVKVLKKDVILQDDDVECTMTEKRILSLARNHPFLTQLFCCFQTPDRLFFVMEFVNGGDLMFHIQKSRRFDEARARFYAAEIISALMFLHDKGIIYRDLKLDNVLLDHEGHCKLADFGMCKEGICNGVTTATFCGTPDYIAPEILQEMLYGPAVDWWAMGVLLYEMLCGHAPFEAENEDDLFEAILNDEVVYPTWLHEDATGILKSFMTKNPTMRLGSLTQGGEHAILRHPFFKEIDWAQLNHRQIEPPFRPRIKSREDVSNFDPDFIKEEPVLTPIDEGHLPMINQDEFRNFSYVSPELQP

## CCN(CC)CCCCNc1ncc2cc(-c3cc(OC)cc(OC)c3)c(NC(=O)NC(C)(C)C)nc2n1
[1]
  % of control: 100%

## CN(C)C/C=C/C(=O)Nc1ccc(C(=O)N2CCCC(Nc3ncc(Cl)c(-c4c[nH]c5ccccc45)n3)C2)cc1 (configuration not stated)
[2]
  % of control: 100%

## Nc1cnc(N2CCc3cc(S(=O)(=O)Nc4c(F)cc(Cl)cc4F)cc(N4CCCC4=O)c32)nc1 [TP-020n]
[3]
  % of control: 97%

## C=CC(=O)Nc1cc(-n2c(=O)ccc3cnc4ccc(-c5ccc(NS(C)(=O)=O)cc5)cc4c32)ccc1C
[4]; at 1 µM
  % of control: 100%
[4]; at 10 µM
  % of control: 81%

## COc1cc(N(C)c2ccnc3ccc(C(F)(F)F)cc23)cc(OC)c1OC
[5]
  % binding: 96%

## Cc1cc(F)c(C(=O)Nc2cccc(-c3nncn3C(C)C)n2)cc1-n1cnc(C2CC2)c1
[6]
  % of control: 100%
